Laboratory results reported in patent US11339171B2, “MDM2 inhibitors” (Gan & Lee Pharmaceuticals, priority 2017, dated 2022).

Tests used:
[1] = molecular target: T1, MDM2 (Homo sapiens, UniProt Q00987); experiment: Inhibition test of MDM2-P53 (GST-MDM2, Biotin-P53, Anti-GST-Tb, SA-XL665); assay type: binding
T1 construct: made in house
How it was run: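 Compounds, serially diluted 5-fold (twelve concentrations), were shaken for 90 min at 25° C with a mix of GST-MDM2 (4 nM final), Biotin-P53, anti-GST-Tb and SA-XL665. Buffer: 1×PBS, 0.1% BSA, 5 mM DTT, 1 mM AEBSF; signal read on a microplate reader.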

[2] = test system: human osteosarcoma cell line SJSA-1; experiment: Inhibition of proliferation of human osteosarcoma cell line SJSA-1 (DAPI staining, In Cell Analyzer); conditions: for IC50: Homo sapiens, SJSA-1, 72 h, read-out: IC50 (nM), inhibitory activity on proliferation of human osteosarcoma cell line SJSA-1, SJSA-1, incubated 72 h; for inhibitory effect on human osteosarcoma cell line SJSA-1 compared with positive control compound HDM201: labels are Example numbers, the compounds with S-configuration are meant

T1 sequence (Q00987 whole entry): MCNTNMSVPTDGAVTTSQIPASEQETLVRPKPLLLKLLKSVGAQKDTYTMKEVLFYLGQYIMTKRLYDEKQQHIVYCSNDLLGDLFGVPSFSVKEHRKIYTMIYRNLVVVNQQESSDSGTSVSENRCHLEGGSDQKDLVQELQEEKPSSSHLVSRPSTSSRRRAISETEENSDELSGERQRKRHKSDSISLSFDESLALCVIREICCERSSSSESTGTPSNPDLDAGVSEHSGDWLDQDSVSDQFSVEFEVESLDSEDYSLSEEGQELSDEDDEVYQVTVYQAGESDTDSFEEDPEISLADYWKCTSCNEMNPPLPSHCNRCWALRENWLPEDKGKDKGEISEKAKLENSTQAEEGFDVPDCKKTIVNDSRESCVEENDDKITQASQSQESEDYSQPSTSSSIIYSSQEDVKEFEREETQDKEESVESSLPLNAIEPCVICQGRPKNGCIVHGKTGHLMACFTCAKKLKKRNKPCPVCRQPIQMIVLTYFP

| SMILES | IC50 [1] [µM] | IC50 [2] [nM] | inhibitory effect on human osteosarcoma cell line SJSA-1 compared with positive control compound HDM201 [2] |
| --- | --- | --- | --- |
| CCOc1ccccc1-c1nc2c(n1C(C)C)[C@@]1(C(=O)Nc3cc(Cl)ccc31)N(c1cc(Cl)ccc1C)C2=O [Example S-35, (S)-6-chloro-5′-(5-chloro-2-methylphenyl)-2′-(2-ethoxyphenyl)-3′-isopropyl-3′H-spiro[dihydroindole-3,4′-pyrrolo[3,4-d]imidazole]-2,6′(5′H)-dione] | 0.0234 | 258 | – |
| CCc1ccccc1-c1nc2c(n1C(C)C)[C@@]1(C(=O)Nc3cc(Cl)ccc31)N(c1cc(Cl)ccc1C)C2=O [Example S-7, (S)-6-chloro-5′-(5-chloro-2-methylphenyl)-2′-(2-ethylphenyl)-3′-isopropylisopropyl-3′H-spiro[dihydroindole-3,4′-pyrrolo[3,4-d]imidazole]-2,6′(5′H)-dione] | 0.0732 | 1270 | – |
| COc1ncc(-c2nc3c(n2C(C)C)[C@@]2(C(=O)Nc4cc(Cl)ccc42)N(c2cc(Cl)cnc2C)C3=O)c(OC)n1 [Example S-42, (S)-6-chloro-5′-(5-chloro-2-methylpyridin-3-yl)-2′-(2,4-dimethoxypyrimidin-5-yl)-3′-isopropyl-3′H-spiro[dihydroindole-3,4′-pyrrolo[3,4-d]imidazole]-2,6′(5′H)-dione] | 0.00151 | 5.6 | – |
| CCc1ccc(-c2nc3c(n2C(C)C)[C@]2(C(=O)Nc4cc(Cl)ccc42)N(c2cc(Cl)ccc2C)C3=O)c(OC)c1 [Example R-33, (R)-6-chloro-5′-(5-chloro-2-methylphenyl)-2′-(4-ethyl-2-methoxyphenyl)-3′-isopropyl-3′H-spiro[dihydroindole-3,4′-pyrrolo[3,4-d]imidazole]-2,6′(5′H)-dione] | 0.592 | 4890 | – |
| COc1cc(C(=O)N(C)C)ccc1-c1nc2c(n1C(C)C)[C@@]1(C(=O)Nc3cc(Cl)ccc31)N(c1cc(Cl)ccc1C)C2=O [Example S-68, (S)-4-(6-chloro-5′-(5-chloro-2-methylphenyl)-3′-isopropyl-2,6′-dioxo-5′,6′-dihydro-3′H-spiro[dihydroindole-3,4′-pyrrolo[3,4-d]imidazole]-2′-yl)-3-methoxy-N,N-dimethylbenzamide] | 0.00232 | 1700 | – |
| CNC(=O)c1ccc(OC)c(-c2nc3c(n2C(C)C)[C@]2(C(=O)Nc4cc(Cl)ccc42)N(c2cc(Cl)ccc2C)C3=O)c1 [Example R-21, (R)-3-(6-chloro-5′-(5-chloro-2-methylphenyl)-3′-isopropyl-2,6′-dioxo-5′,6′-dihydro-3′H-spiro[dihydroindole-3,4′-pyrrolo[3,4-d]imidazole]-2′-yl)-4-methoxy-N-methylbenzamide] | 0.223 | 5230 | – |
| CCN(C)c1ncc(-c2nc3c(n2C(C)C)[C@@]2(C(=O)Nc4cc(Cl)ccc42)N(c2cc(Cl)ccc2C)C3=O)c(OC)n1 [Example S-119, (S)-6-chloro-5′-(5-chloro-2-methylphenyl)-2′-(2-(ethyl(methyl)amino)-4-methoxypyrimidin-5-yl)-3′-isopropyl-3′H-spiro[dihydroindole-3,4′-pyrrolo[3,4-d]imidazole]-2,6′(5′H)-dione] | 0.00239 | 20 | – |
| COc1nc(N2CCCC2)ncc1-c1nc2c(n1C(C)C)[C@@]1(C(=O)Nc3cc(Cl)ccc31)N(c1cc(Cl)ccc1C)C2=O [Example S-114, (S)-6-chloro-5′-(5-chloro-2-methylphenyl)-3′-isopropyl-2′-(4-methoxy-2-(pyrrolidine-1-yl)pyrimidin-5-yl)-3′H-spiro[dihydroindole-3,4′-pyrrolo[3,4-d]imidazole]-2,6′(5′H)-dione] | 0.0032 | 10.1 | – |
| COc1cc(C)ccc1-c1nc2c(n1C(C)C)[C@]1(C(=O)Nc3cc(Cl)ccc31)N(c1cc(Cl)ccc1C)C2=O [Example R-24, (R)-6-chloro-5′-(5-chloro-2-methylphenyl)-3′-isopropyl-2′-(2-methoxy-4-methylphenyl)-3′H-spiro[dihydroindole-3,4′-pyrrolo[3,4-d]imidazole]-2,6′(5′H)-dione] | 0.392 | 872 | – |
| CCOc1ncc(-c2nc3c(n2C(C)C)[C@@]2(C(=O)Nc4cc(Cl)ccc42)N(c2cc(F)cc(Cl)c2)C3=O)c(OC)n1 [Example S-180, (S)-6-chloro-5′-(3-chloro-5-fluorophenyl)-2′-(2-ethoxy-4-methoxypyrimidin-5-yl)-3′-isopropyl-3′H-spiro[dihydroindole-3,4′-pyrrolo[3,4-d]imidazole]-2,6′(5′H)-dione] | 0.0046 | 56.8 | – |
| COc1nc(C)ncc1-c1nc2c(n1C(C)C)[C@@]1(C(=O)Nc3cc(Cl)ccc31)N(c1cc(Cl)ccc1C)C2=O [Example S-118, (S)-6-chloro-5′-(5-chloro-2-methylphenyl)-3′-isopropyl-2′-(4-methoxy-2-methylpyrimidin-5-yl)-3′H-spiro[dihydroindole-3,4′-pyrrolo[3,4-d]imidazole]-2,6′(5′H)-dione] | 0.00351 | 107 | – |
| COc1cc(N)c(C)cc1-c1nc2c(n1C(C)C)[C@@]1(C(=O)Nc3cc(Cl)ccc31)N(c1cc(Cl)ccc1C)C2=O [Example S-74, (S)-2′-(4-amino-2-methoxy-5-methylphenyl)-6-chloro-5′-(5-chloro-2-methylphenyl)-3′-isopropyl-3′H-spiro[dihydroindole-3,4′-pyrrolo[3,4-d]imidazole]-2,6′(5′H)-dione] | 0.00098 | 7.85 | – |
| COc1ccc(C#N)cc1-c1nc2c(n1C(C)C)C1(C(=O)Nc3cc(Cl)ccc31)N(c1cc(Cl)ccc1C)C2=O (stereo not shown) [Example 13, 3-(6-chloro-5′-(5-chloro-2-methylphenyl)-3′-isopropyl-2,6′-dioxo-5′,6′-dihydro-3′H-spiro[dihydroindole-3,4′-pyrrolo[3,4-d]imidazole]-2′-yl)-4-methoxybenzonitrile] | – | – | better |
| COc1cc(N(C)C)ccc1-c1nc2c(n1C(C)C)C1(C(=O)Nc3cc(Cl)ccc31)N(c1cc(Cl)ccc1C)C2=O (stereo not shown) [Example 23, 6-chloro-5′-(5-chloro-2-methylphenyl)-2′-(4-(dimethylamino)-2-methoxyphenyl)-3′-isopropyl-3′H-spiro[dihydroindole-3,4′-pyrrolo[3,4-d]imidazole]-2,6′(5′H)-dione] | – | – | better |
| COc1cc(C(C)C)ccc1-c1nc2c(n1C(C)C)C1(C(=O)Nc3cc(Cl)ccc31)N(c1cc(Cl)cnc1C)C2=O (stereo not shown) [Example 89, 6-chloro-5′-(5-chloro-2-methylpyridin-3-yl)-3′-isopropyl-2′-(4-isopropyl-2-methoxyphenyl)-3′H-spiro[dihydroindole-3,4′-pyrrolo[3,4-d]imidazole]-2,6′(5′H)-dione] | – | – | better |
| COc1cc(N(C)C)c(C)cc1-c1nc2c(n1C(C)C)C1(C(=O)Nc3cc(Cl)ccc31)N(c1cc(Cl)ccc1C)C2=O (stereo not shown) [Example 91, 6-chloro-5′-(5-chloro-2-methylphenyl)-2′-(4-(dimethylamino)-2-methoxy-5-methylphenyl)-3′-isopropyl-3′H-spiro[dihydroindole-3,4′-pyrrolo[3,4-d]imidazole]-2,6′(5′H)-dione] | – | – | better |
